Tests used:
Test in all cases: relative viability (nuclei count vs DMSO), 5 days (fraction); higher = more cells survive
[1] = compound: CC1=C(C(=NN1)C)CC2=C(C3=C(S2)N(C(=O)N(C3=O)C)CC(C)C)C(=O)N4C[C@@H](CO4)O + Nc1nc2[nH]cc(CCc3ccc(C(=O)N[C@@H](CCC(=O)O)C(=O)O)cc3)c2c(=O)[nH]1 [Pemetrexed] (partner 0.2 µM)
Method in brief: (§1)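 Values are medians from duplicate plates. Each reflects relative viability, defined as the nuclei count of treated wells over that of vehicle wells. Lung cancer cell lines in 1536-well plates were pin-tool dosed one day after seeding with one drug alone or with a fixed anchor-drug dose plus five library-drug doses (not always all listed) in √10 steps, then fixed, stained and imaged at 4× after 5 days.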

IDH-C35 + Trametinib = compound: Cc1ccccc1C(C(=O)NC1CCCCC1)N(C(=O)Cn1ccnc1C)c1cccc(F)c1 [IDH-C35] + CC(=O)Nc1cccc(-n2c(=O)n(C3CC3)c(=O)c3c(Nc4ccc(I)cc4F)n(C)c(=O)c(C)c32)c1 [Trametinib] (partner 0.02 µM)
Method in brief: as §1

IDH-C35 + Foretinib = compound: Cc1ccccc1C(C(=O)NC1CCCCC1)N(C(=O)Cn1ccnc1C)c1cccc(F)c1 [IDH-C35] + COc1cc2c(Oc3ccc(NC(=O)C4(C(=O)Nc5ccc(F)cc5)CC4)cc3F)ccnc2cc1OCCCN1CCOCC1 [Foretinib] (partner 0.25 µM)
Method in brief: as §1

IDH-C35 + Pemetrexed = compound: Cc1ccccc1C(C(=O)NC1CCCCC1)N(C(=O)Cn1ccnc1C)c1cccc(F)c1 [IDH-C35] + Nc1nc2[nH]cc(CCc3ccc(C(=O)N[C@@H](CCC(=O)O)C(=O)O)cc3)c2c(=O)[nH]1 [Pemetrexed] (partner 0.2 µM)
Method in brief: as §1

Cell Line | relative viability ([1]; first compound 0.0025 µM) | relative viability ([1]; first compound 0.007906 µM) | relative viability ([1]; first compound 0.025 µM) | relative viability ([1]; first compound 0.07906 µM) | relative viability ([1]; first compound 0.25 µM) | relative viability (IDH-C35 + Trametinib; first compound 0.08 µM) | relative viability (IDH-C35 + Trametinib; first compound 0.253 µM) | relative viability (IDH-C35 + Trametinib; first compound 0.8 µM) | relative viability (IDH-C35 + Trametinib; first compound 2.53 µM) | relative viability (IDH-C35 + Trametinib; first compound 8 µM) | relative viability (IDH-C35 + Foretinib; first compound 0.08 µM) | relative viability (IDH-C35 + Foretinib; first compound 0.253 µM) | relative viability (IDH-C35 + Foretinib; first compound 0.8 µM) | relative viability (IDH-C35 + Foretinib; first compound 2.53 µM) | relative viability (IDH-C35 + Foretinib; first compound 8 µM) | relative viability (IDH-C35 + Pemetrexed; first compound 0.08 µM) | relative viability (IDH-C35 + Pemetrexed; first compound 0.253 µM) | relative viability (IDH-C35 + Pemetrexed; first compound 0.8 µM) | relative viability (IDH-C35 + Pemetrexed; first compound 2.53 µM) | relative viability (IDH-C35 + Pemetrexed; first compound 8 µM)
NCI-H1651 | 0.587 | 0.598 | 0.531 | 0.56 | 0.53 | 0.856 | 0.899 | 0.838 | 0.858 | 0.832 | 0.858 | 0.809 | 0.732 | 0.822 | 0.79 | 0.53 | 0.615 | 0.571 | 0.607 | 0.641
NCI-H441 | 0.253 | 0.299 | 0.263 | 0.244 | 0.263 | 0.435 | 0.415 | 0.5 | 0.542 | 0.484 | 0.863 | 0.753 | 0.948 | 1 | 0.888 | 0.256 | 0.272 | 0.269 | 0.292 | 0.244
LCLC-103H | 0.437 | 0.474 | 0.444 | 0.459 | 0.505 | 0.704 | 0.672 | 0.727 | 0.656 | 0.7 | 0.795 | 0.717 | 0.85 | 0.754 | 0.736 | 0.452 | 0.49 | 0.467 | 0.48 | 0.428
LCLC-97TM1 | 0.179 | 0.19 | 0.173 | 0.152 | 0.202 | 0.183 | 0.2 | 0.21 | – | 0.243 | 0.921 | 0.865 | 0.947 | 1.02 | 0.954 | 0.216 | 0.173 | 0.201 | – | 0.145
NCI-H1355 | 1.09 | 1.08 | 1.04 | 0.847 | 0.927 | 0.453 | 0.424 | 0.398 | 0.392 | 0.423 | 1.04 | 1.02 | 0.935 | 0.982 | 1 | 1.11 | 1.02 | 0.987 | 1 | 1
HOP-62 | 0.357 | 0.332 | 0.217 | 0.281 | 0.356 | 0.395 | 0.353 | 0.424 | 0.33 | 0.384 | 1.11 | 1.01 | 0.999 | 1.09 | 1.13 | 0.302 | 0.309 | 0.255 | 0.338 | 0.346
NCI-H2085 | 0.926 | 0.93 | 0.73 | 0.987 | 0.476 | 0.634 | 0.493 | 0.571 | 0.729 | 0.457 | 0.895 | 0.907 | 0.902 | 1 | 0.897 | 0.943 | 0.889 | 0.889 | 0.893 | 0.888

Reference: the supplement of paper PMC10307832
